Marks after values point to notes of the source that are not given here.
What was measured:
[1] = tested on: acetic acid-induced writhing; test: acetic acid-induced writhing test (peripheral analgesic); format: in vivo, albino mice; details: for 1/(observed property): 1/(% inhibition) peripheral analgesic; for Observed property: % inhibition/protection peripheral analgesic; for % Inhibition/protection: vs control; for % Inhibition/protection / Writing reflex ± SE: 10 mg/kg indomethacin mol equivalent i.p.; for Potency: % inhibition/protection compared to indomethacin; for Writing reflex ± SE: number of writhing counted for 30 min
Description: Peripheral analgesic activity was measured by the standard acetic acid-induced writhing test in mice. […] One hour after the i.p. administration, each mouse was injected with 0.1 ml of 1% acetic acid solution i.p. The control group animals were given sterile/distilled water with few drops of Tween 80. Starting 5 min after the acetic acid injection, the number of muscular contractions in each mouse was counted for 30 min. A significant reduction in the number of writhing by a conjugate compared with control animals was considered as a positive analgesic response. Percentage protection was calculated according to equ. (3), where n is the average number of writhing in the control group and n′ is the average number of writhing in the treated group. The % potency was calculated by equ. (4) (Table 2).

hot plate latency = test: hot plate test (central analgesic); format: in vivo, albino mice; details: for Observed property: % Protection central analgesic (120 min); for Latency period ± SE: 10 mg/kg indomethacin mol equivalent i.p., cutoff 15 seconds; for % Protection: vs control; for Potency: at 120 min. compared to indomethacin
Description: An in vivo standard hot plate test was performed. […] The control group animals were given sterile/distilled water with few drops of Tween 80. The maximum cutoff time was 15 seconds to prevent tissue damage. Response latencies were measured at 30, 60, 90 and 120 inns. The % protection was calculated by equ. (5), where, Ti, To are the latency time mean of the tested compound and control group respectively (Table 3).

COX-1 = COX-1 (UniProt P05979); format: biochemical, human; details: ± SD
Description: Rev. […] Thromb. Vasc. […] Rev. […] Rev. […] Rev. Oncol. Hematol. […] Curr. Pharm. Des. […] Luong, et al., Nat. Struct. […] A. and Marnett, L. J., Chem. Rev. […] Drug Discov. […] Biomol.

gastric mucosa = test: ulcerogenic liability; details: for ulcers or erosions to the gastric / ulcerogenic liability (in words): mice; for ulcers or erosions to the gastric / ulcerogenic liability (in words) / % Incidence of ulcer divided by 10 / Average of ulcer number / Average severity of ulcer / Number of animals with ulcer: oral; for % Incidence of ulcer divided by 10 / Average of ulcer number / Average severity of ulcer / Number of animals with ulcer: three successive days, 10 mg/kg indomethacin mol equivalent; for Number of animals with ulcer: 6 animals; for Ulcer index: sum of the three values
Description: The ulcerogenic liability of conjugates was determined in albino mice following a standard method. Animals of either sex (pregnant females were excluded) weighing 20-25 g were divided into 8 groups of 6 animals each. The animals fasted 18 h before drug administration. […] The control group animals were given water with a few drops of Tween 80. The animals were sacrificed by cervical dislocation and the stomach was removed, opened along the greater curvature, and rinsed with saline. The gastric mucosa was examined with a magnifying lens (10×) for the presence of lesions and erosions. The ulcer index was calculated (Table 4) and the degree of ulcerogenic effect was expressed in terms of: (1) the percentage incidence of ulcers divided by 10; (2) average number of ulcers per stomach; and (3) average severity of ulcers. The ulcer index is the value that resulted from the sum of the above three values.

Chain of COX-1 (P05979 whole entry): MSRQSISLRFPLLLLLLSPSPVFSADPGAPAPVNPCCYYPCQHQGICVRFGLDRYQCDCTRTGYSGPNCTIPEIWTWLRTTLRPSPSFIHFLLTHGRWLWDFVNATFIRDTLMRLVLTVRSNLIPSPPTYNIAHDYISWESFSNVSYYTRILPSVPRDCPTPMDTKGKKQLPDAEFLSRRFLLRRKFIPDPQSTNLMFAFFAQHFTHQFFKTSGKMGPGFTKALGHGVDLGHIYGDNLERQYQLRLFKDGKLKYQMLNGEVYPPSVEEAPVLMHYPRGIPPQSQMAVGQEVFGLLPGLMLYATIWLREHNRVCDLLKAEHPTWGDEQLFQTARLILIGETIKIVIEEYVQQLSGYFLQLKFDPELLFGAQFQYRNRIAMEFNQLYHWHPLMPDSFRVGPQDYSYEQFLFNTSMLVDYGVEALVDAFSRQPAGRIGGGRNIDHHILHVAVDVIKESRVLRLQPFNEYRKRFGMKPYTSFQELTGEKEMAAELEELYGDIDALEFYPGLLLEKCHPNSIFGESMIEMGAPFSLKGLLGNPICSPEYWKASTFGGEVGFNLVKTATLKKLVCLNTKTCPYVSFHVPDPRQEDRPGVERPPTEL

CC(C)Cc1ccc(C(C)C(=O)OCc2cn(-c3ccccc3Cl)nn2)cc1 (centres unmarked) [Compound 5a, (1-(2-Chlorophenyl)-1H-1,2,3-triazol-4-yl)methyl 2-(4-isobutylphenyl)propanoate]
1/(observed property) [1]: 0.01201
Observed property [1]: 83.3
% Inhibition/protection [1]: 83.3%
Observed property (hot plate latency): 54.5
IC50 (COX-1): 17.2 ± 0.41 µM
ulcers or erosions to the gastric / ulcerogenic liability (in words) (gastric mucosa): none and No ulcerogenic liability
% Incidence of ulcer divided by 10 (gastric mucosa): 0
Average of ulcer number (gastric mucosa): 0
Average severity of ulcer (gastric mucosa): 0
Number of animals with ulcer (gastric mucosa): 0
Ulcer index (gastric mucosa): 0

COc1ccc2c(c1)c(CC(=O)OCc1cn(-c3ccc(Cl)cc3)nn1)c(C)n2C(=O)c1ccc(Cl)cc1 [Compound 8b, (1-(4-Chlorophenyl)-1H-1,2,3-triazol-4-yl)methyl 2-(1-(4-chlorobenzoyl)-5-methoxy-2-methyl-1H-indol-3-yl)acetate]
1/(observed property) [1]: 0.0216
Observed property [1]: 46.3
Observed property (hot plate latency): 9.7

COc1ccc(-n2cc(COC(=O)C(C)c3ccc(CC(C)C)cc3)nn2)cc1 (centres unmarked) [Compound 5f, (1-(4-Methoxyphenyl)-1H-1,2,3-triazol-4-yl)methyl 2-(4-isobutylphenyl)propanoate]
1/(observed property) [1]: 0.0125
Observed property [1]: 80.0
Observed property (hot plate latency): 0.2

COc1ccc2c(c1)c(CC(=O)OCc1cn(-c3ccccc3Cl)nn1)c(C)n2C(=O)c1ccc(Cl)cc1 [Compound 8a, (1-(2-Chlorophenyl)-1H-1,2,3-triazol-4-yl)methyl 2-(1-(4-chlorobenzoyl)-5-methoxy-2-methyl-H-indol-3-yl)acetate]
1/(observed property) [1]: 0.02028
Potency [1]: 68.7%
Observed property [1]: 49.3
Writing reflex ± SE [1]: 20.3 ± 1.8
% Inhibition/protection [1]: 49.3%
Observed property (hot plate latency): 51.3
Latency period ± SE (hot plate latency; After 30 min.): 12.19 s
% Protection (hot plate latency; After 30 min.): (82.5) %
Latency period ± SE (hot plate latency; After 60 min.): 13.51 s
% Protection (hot plate latency; After 60 min.): 1.7** (85.8) %
Latency period ± SE (hot plate latency; After 90 min.): 13.85 ± 1.4 s
% Protection (hot plate latency; After 90 min.): (55.4) %
Latency period ± SE (hot plate latency; After 120 min.): 13.63 ± 1.3 s
% Protection (hot plate latency; After 120 min.): (51.3) %
Potency (hot plate latency): 90.8%

C#CCOC(=O)Cc1c(C)n(C(=O)c2ccc(Cl)cc2)c2ccc(OC)cc12 [Compound 7, prop-2-yn-1-yl 2-(1-(4-chlorobenzoyl)-5-methoxy-2-methyl-1H-indol-3-yl) acetate]
Potency [1]: 124.4%
Writing reflex ± SE [1]: 4.3 ± 0.5
% Inhibition/protection [1]: 89.3%
Latency period ± SE (hot plate latency; After 30 min.): 6.68 s
% Protection (hot plate latency; After 30 min.): 2.0* (0.0) %
Latency period ± SE (hot plate latency; After 60 min.): 9.54 ± 1.6 s
% Protection (hot plate latency; After 60 min.): (31.2) %
Latency period ± SE (hot plate latency; After 90 min.): 11.18 ± 1.5 s
% Protection (hot plate latency; After 90 min.): (25.5) %
Latency period ± SE (hot plate latency; After 120 min.): 10.78 ± 1.8 s
% Protection (hot plate latency; After 120 min.): (19.6) %
Potency (hot plate latency): 34.7%

COc1ccc2c(c1)c(CC(=O)OCc1cn(-c3ccc(F)cc3)nn1)c(C)n2C(=O)c1ccc(Cl)cc1 [Compound 8c, (1-(4-Fluorophenyl)-1H-1,2,3-triazol-4-yl)methyl 2-(1-(4-chlorobenzoyl)-5-methoxy-2-methyl-1H-indol-3-yl)acetate]
1/(observed property) [1]: 0.02421
Observed property [1]: 41.3
Observed property (hot plate latency): 48.1

CC(C)Cc1ccc(C(C)C(=O)OCc2cn(-c3ccc(Cl)cc3)nn2)cc1 (centres unmarked) [Compound 5b, (1-(4-Chlorophenyl)-1H-1,2,3-triazol-4-yl)methyl 2-(4-isobutylphenyl)propanoate]
1/(observed property) [1]: 0.01143
Observed property [1]: 87.5
% Inhibition/protection [1]: 87.5%
Observed property (hot plate latency): 27.1
IC50 (COX-1): 119 ± 3.4 µM
ulcers or erosions to the gastric / ulcerogenic liability (in words) (gastric mucosa): none and No ulcerogenic liability
% Incidence of ulcer divided by 10 (gastric mucosa): 0
Average of ulcer number (gastric mucosa): 0
Average severity of ulcer (gastric mucosa): 0
Number of animals with ulcer (gastric mucosa): 0
Ulcer index (gastric mucosa): 0

COc1ccc2c(c1)c(CC(=O)OCc1cn(-c3ccc(C)cc3)nn1)c(C)n2C(=O)c1ccc(Cl)cc1 [Compound 8d, (1-(p-Tolyl)-1H-1,2,3-triazol-4-yl)methyl 2-(1-(4-chlorobenzoyl)-5-methoxy-2-methyl-1H-indol-3-yl)acetate]
1/(observed property) [1]: 0.016
Observed property [1]: 62.5
Observed property (hot plate latency): 48.6

CC(C)Cc1ccc(C(C)C(=O)OCc2cn(-c3ccc(F)cc3)nn2)cc1 (centres unmarked) [Compound 5c, (1-(4-Fluorophenyl)-1H-1,2,3-triazol-4-yl)methyl 2-(4-isobutylphenyl)propanoate]
1/(observed property) [1]: 0.01201
Observed property [1]: 83.3
Observed property (hot plate latency): 18
% protection compared with parent compound ibuprofen (hot plate latency; at 30 min): 1.8 folds

CC(C)Cc1ccc(C(C)C(=O)O)cc1 (centres unmarked) [Ibu, 2-(4-isobutylphenyl)propanoic acid, reference compound]
Potency [1]: 81.5%
% Inhibition/protection [1]: 58.5%
% Protection (hot plate latency; After 30 min.): (61.7) %
% Protection (hot plate latency; After 120 min.): (54.3) %
Potency (hot plate latency): 96.1%
% Incidence of ulcer divided by 10 (gastric mucosa): 3.33
Average of ulcer number (gastric mucosa): 0.33
Average severity of ulcer (gastric mucosa): 0.67
Number of animals with ulcer (gastric mucosa): 2/6

CC(C)Cc1ccc(C(C)C(=O)OCc2cn(-c3ccc([N+](=O)[O-])cc3)nn2)cc1 (centres unmarked) [Compound 5g, (1-(4-Nitrophenyl)-1H-1,2,3-triazol-4-yl)methyl 2-(4-isobutylphenyl)propanoate]
1/(observed property) [1]: 0.01538
Observed property [1]: 65.0
Observed property (hot plate latency): 28.1

COc1ccc2c(c1)c(CC(=O)OCc1cn(-c3ccc([N+](=O)[O-])cc3)nn1)c(C)n2C(=O)c1ccc(Cl)cc1 [Compound 8g, (1-(4-Nitrophenyl)-1H-1,2,3-triazol-4-yl)methyl 2-(1-(4-chlorobenzoyl)-5-methoxy-2-methyl-1H-indol-3-yl)acetate]
1/(observed property) [1]: 0.01038
Observed property [1]: 96.3
Observed property (hot plate latency): 2.7

COc1ccc2c(c1)c(CC(=O)OCc1cn(-c3ccccc3OC)nn1)c(C)n2C(=O)c1ccc(Cl)cc1 [Compound 8e, (1-(2-Methoxyphenyl)-1H-1,2,3-triazol-4-yl)methyl 2-(1-(4-chlorobenzoyl)-5-methoxy-2-methyl-1H-indol-3-yl)acetate]
1/(observed property) [1]: 0.01238
Observed property [1]: 80.8
Observed property (hot plate latency): 28.9

COc1ccc(-n2cc(COC(=O)Cc3c(C)n(C(=O)c4ccc(Cl)cc4)c4ccc(OC)cc34)nn2)cc1 [Compound 8f, (1-(4-Methoxyphenyl)-1H-1,2,3-triazol-4-yl)methyl 2-(1-(4-chlorobenzoyl)-5-methoxy-2-methyl-1H-indol-3-yl)acetate]
1/(observed property) [1]: 0.01497
Observed property [1]: 66.8
Observed property (hot plate latency): 66.5

From US20260098019A1, “SYNTHESIS OF NSAID CONJUGATES AS ANTI-INFLAMMATORY AGENTS USING THE MOLECULAR HYBRIDIZATION” (AUGUSTA UNIVERSITY RESEARCH INSTITUTE, INC., priority 2022, published 2026)
